# Results as given in EP4360627A1, “TREATMENT OF OSTEOARTHRITIS WITH COMT INHIBITORS” (Institut National de la Santé et de la Recherche Médicale …, priority 2022, dated 2024).
# Legend:
# [1] = tested on: modèle murin d'arthrose (MIA); experiment: Von Frey filament test (mechanical allodynia) in murine osteoarthritis model (MIA); format: in vivo, souris C57BL7; conditions: intra-articular injections at 1, 2, 3 and 4 weeks after induction of osteoarthritis; arthritic paw relative to contralateral paw; figure 4B
# From the text: (§1) Cette étude a été autorisée par le ministère de l'Enseignement Supérieur, de la Recherche et de l'Innovation après avis favorable du comité d'éthique locale, CENOMEXA (agrément n°B14118015). L'étude est réalisée au sein d'une animalerie agrée (UMS-CYCERON). Des souris C57BL7 mâles, âgées de 10 semaines ont été utilisés. Les souris étaient placées par cage de 8, en cycle inversé, nourriture et eau disponible ad libidum. L'état de santé de chaque souris était évalué quotidiennement.
# (§2) Les injections intra-articulaires (MIA ou tolcapone) ont également été réalisées sous anesthésie générale. Après un repérage clinique du ligament patellaire, les injections sont faites par voie intra articulaire du genou après passage du ligament patellaire à l'aiguille 27 Gauge.
# L'allodynie (douleur déclenchée pour un stimulus qui est normalement indolore) mécanique est évaluée par le test des filaments de Von Frey (BIOSEB In Vivo Research Instruments®). Ce test repose sur le principe selon lequel lorsque l'extrémité du filament (de longueur et de diamètre donnés) est appliquée perpendiculairement, la force exercée par le filament augmente jusqu'à ce que le filament fléchisse. Au-delà, la force exercée par le filament reste constante. Pour ce test, les souris sont placées dans une cage individuelle, sur une grille. Une période d'habituation de 30 minutes était requise avant le début du test. […]
# [2] = tested on: modèle murin d'arthrose (MIA); experiment: Knee histology (safranine-O / Fast Green) in murine osteoarthritis model (MIA); format: in vivo, souris C57BL7; conditions: intra-articular injections at 1, 2, 3 and 4 weeks after induction; histology at 8 weeks; versus MIA+vehicule; figure 5
# From the text: as §1, §2
# Les articulations sont placées dans une solution de fixation (formaldehyde 37%, PBS) pendant 3 jours, puis décalcifié à l'aide d'Osteosoft pendant 48h. Ensuite, les articulations sont conservées à -80°C dans l'Optimal Cutting Temperature compound (OCT). Des coupes de 10 µm d'épaisseur ont été réalisées à -25°C à l'aide d'un Cryostat (CM 3050 S, Leica BIOSYSTEMS, France), puis montées sur des lames de microscopies SuperFrost®. Les lames sont ensuite colorées au Fast Green puis à la safranine-O. La safranine-O permet de mettre en évidence les composants du cartilage articulaire. […]
# [3] = tested on: chondrocytes articulaires humains; experiment: RT-PCR mRNA expression in IL-1β-stimulated human articular chondrocytes; format: cell-based; conditions: IL-1β 1ng/mL, 48h, increasing doses of tolcapone, mRNA normalised to RPL13A
# From the text: Les cellules ont été obtenus à partir de déchets opératoires selon la réglementation en vigueur (protocole approuvé par le comité de protection des personnes (CPP) Nord-Ouest III). Après la signature du consentement libre et éclairé par les patients, des têtes fémorales, des membranes synoviales et de la moelle osseuse sont récupérées à l'issue d'opération d'arthroplastie de la hanche chez des patients arthrosiques.
# Les têtes fémorales sont disséquées et des copeaux de cartilages sont réalisés. Les chondrocytes sont libérés par digestion à la pronase de type XIV (2 mg/ml pendant 15 minutes; Sigma), suivie d'une digestion à la collagénase de type II (2 mg/ml pendant une nuit; Gibco). Les cellules sont ensuite ensemencées à 4×10^4 cellules/cm^2 dans du milieu Eagle modifié de Dulbecco (DMEM) supplémenté avec 10% de sérum de veau foetal (SVF) avec un cocktail d'antibiotiques. Elles sont ensuite incubées à 37°C dans une atmosphère humidifiée contenant 5% de CO2.
# Pour les trois types cellulaires, les cellules ont été amplifiées dans une enceinte humide à 37°C sous 5% de CO2. Les milieux de culture sont changés 2 à 3 fois par semaine. Un test mycoplasme a été réalisé afin de vérifier qu'elles ne sont pas contaminées. […]
compound,measurement,setting,value
Cc1ccc(C(=O)c2cc(O)c(O)c([N+](=O)[O-])c2)cc1 [tolcapone],douleur induite (Von Frey),[1],réduit nettement la douleur induite
same,dommages articulaires (étude histologique),[2],réduit les dommages articulaires
same,dégradation du cartilage (étude histologique),[2],très fortement limité la dégradation du cartilage
same,expression de gènes impliqués dans le catabolisme (tel que MMP13),[3]; figure 3A,réduit notamment l'expression de gènes impliqués dans le catabolisme (tel que MMP13)
same,expression de gènes impliqués dans l'inflammation (tel que l'IL-6),[3]; figure 3B,réduit notamment l'expression
